Experimental data as given in ChEMBL document CHEMBL1138972, “Discovery of potent CRTh2 (DP2) receptor antagonists” (Bioorg Med Chem Lett, 2006).
Calls of active or inactive are those of the source. No cut-off for these calls is given here.

Columns and labels:
[1] = Intrinsic clearance in human hepatocytes per 10^6 cells
[2] = Intrinsic clearance in rat hepatocytes per 10^6 cells
[3] = biological target: Voltage-gated inwardly rectifying potassium channel KCNH2 (Homo sapiens, UniProt Q12809); assay: Binding affinity to hERG in HEK293 cells by radioligand binding assay; format: cell-based
[4] = biological target: T1, Prostaglandin D2 receptor 2 (Homo sapiens) (UniProt Q9Y5Y4); assay: Agonist activity at CRTh2 receptor; format: functional
T1 sequence (whole entry): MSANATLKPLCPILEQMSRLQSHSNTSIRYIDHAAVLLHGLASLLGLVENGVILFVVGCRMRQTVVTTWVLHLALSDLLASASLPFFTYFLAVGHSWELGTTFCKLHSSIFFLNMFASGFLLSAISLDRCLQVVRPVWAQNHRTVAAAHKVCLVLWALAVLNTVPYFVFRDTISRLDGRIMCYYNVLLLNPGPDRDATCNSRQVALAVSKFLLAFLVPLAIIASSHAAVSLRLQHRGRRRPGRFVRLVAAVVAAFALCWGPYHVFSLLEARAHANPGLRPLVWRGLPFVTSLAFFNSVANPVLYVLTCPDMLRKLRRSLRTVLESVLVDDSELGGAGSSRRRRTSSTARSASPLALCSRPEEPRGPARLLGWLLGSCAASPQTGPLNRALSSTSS

[5] = biological target: T2, Prostaglandin D2 receptor (Homo sapiens) (UniProt Q13258); assay: Binding affinity to DP1 receptor in HEK293 cells by radioligand binding assay; format: cell-based
T2 sequence (whole entry): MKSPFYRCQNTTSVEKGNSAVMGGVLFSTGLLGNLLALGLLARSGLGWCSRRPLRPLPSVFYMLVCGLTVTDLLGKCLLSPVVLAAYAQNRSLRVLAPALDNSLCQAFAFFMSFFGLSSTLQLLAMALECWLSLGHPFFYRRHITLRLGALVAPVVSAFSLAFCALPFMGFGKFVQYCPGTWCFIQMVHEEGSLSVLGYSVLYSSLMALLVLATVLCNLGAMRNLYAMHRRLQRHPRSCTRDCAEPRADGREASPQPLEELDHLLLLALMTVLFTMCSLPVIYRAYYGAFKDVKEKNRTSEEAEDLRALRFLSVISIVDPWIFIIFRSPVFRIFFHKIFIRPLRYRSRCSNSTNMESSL

[6] = biological target: T3, Prostaglandin D2 receptor 2 (Homo sapiens, UniProt Q9Y5Y4); assay: Displacement of [3H]PGD2 from human CRTh2 expressed in HEK293 cells; format: cell-based
T3 sequence (Q9Y5Y4 whole entry): T1 sequence (whole entry)

[7] = (§1) Volume of distribution in rat; format: ADME, organism-based; settings: in vivo, read-out: Vss
[8] = Clearance in rat; format: ADME, organism-based; settings: in vivo
[9] = (§2) Half life in rat; format: ADME, organism-based; settings: in vivo
[10] = Bioavailability in rat; format: ADME, organism-based; settings: in vivo
Cytochrome P450 2C19 = Cytochrome P450 2C19 (Homo sapiens, UniProt P33261); assay: Inhibition at recombinant human CYP2C19; format: ADME
[11] = biological target: T1, Prostaglandin D2 receptor 2 (Homo sapiens); assay: Activity at CRTh2 measured as calcium flux changes in HEK293 cells by FLIPR; format: functional, cell-based
physchem = settings: buffer, pH 7.4
Description: Lipophilicity, LogD at pH 7.4

Homo sapiens = species: Homo sapiens; assay: Protein binding in human plasma; settings: read-out: PPB (converted)
[12] = Bioavailability in dog; format: ADME, organism-based, Canis lupus familiaris; settings: in vivo
Rattus norvegicus [13] = species: Rattus norvegicus; assay: as §1; format: ADME, organism-based; settings: in vivo
Rattus norvegicus [14] = species: Rattus norvegicus; assay: as §2; format: ADME, organism-based; settings: in vivo
[15] = Protein binding in rat plasma; format: ADME, cell-free; settings: read-out: PPB (converted)
[16] = Clearance in dog; format: ADME, organism-based, Canis lupus familiaris; settings: in vivo
[17] = Half life in dog; format: ADME, organism-based, Canis lupus familiaris; settings: in vivo
[18] = Volume of distribution in dog; format: ADME, organism-based, Canis lupus familiaris; settings: in vivo, read-out: Vss
Cytochrome P450 2C9 = Cytochrome P450 2C9 (Homo sapiens, UniProt P11712); assay: Inhibition at CYP2C9; format: ADME
[19] = biological target: Aldo-keto reductase family 1 member B1 (Rattus norvegicus, UniProt P07943); assay: Inhibition at rat aldose reductase
[20] = biological target: Sodium-dependent serotonin transporter (Rattus norvegicus, UniProt P31652); assay: Inhibition at rat serotonin transporter
[21] = biological target: Prostaglandin G/H synthase 1 (Homo sapiens, UniProt P23219); assay: Inhibition of COX1
[22] = biological target: T4, Prostaglandin G/H synthase 2 (Homo sapiens, UniProt P35354); assay: Inhibition of COX2
T4 sequence (P35354 whole entry): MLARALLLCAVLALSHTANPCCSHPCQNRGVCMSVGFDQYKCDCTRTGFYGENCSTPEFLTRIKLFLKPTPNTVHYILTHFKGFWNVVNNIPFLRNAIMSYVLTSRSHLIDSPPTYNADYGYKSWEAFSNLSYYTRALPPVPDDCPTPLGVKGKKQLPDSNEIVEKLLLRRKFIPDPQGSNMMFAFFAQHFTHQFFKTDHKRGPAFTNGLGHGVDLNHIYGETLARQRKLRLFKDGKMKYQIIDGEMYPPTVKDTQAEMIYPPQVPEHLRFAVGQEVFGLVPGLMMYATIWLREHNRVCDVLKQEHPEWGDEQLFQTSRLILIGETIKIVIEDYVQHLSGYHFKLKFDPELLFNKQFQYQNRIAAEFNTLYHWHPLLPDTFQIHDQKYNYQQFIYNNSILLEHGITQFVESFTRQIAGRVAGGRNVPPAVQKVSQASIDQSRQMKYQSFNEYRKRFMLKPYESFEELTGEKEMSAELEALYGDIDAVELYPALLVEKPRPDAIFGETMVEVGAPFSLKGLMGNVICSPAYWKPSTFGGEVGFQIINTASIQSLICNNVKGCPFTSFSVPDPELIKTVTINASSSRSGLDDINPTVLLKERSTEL

Voltage-gated inwardly rectifying potassium channel KCNH2, sequence (Q12809 whole entry): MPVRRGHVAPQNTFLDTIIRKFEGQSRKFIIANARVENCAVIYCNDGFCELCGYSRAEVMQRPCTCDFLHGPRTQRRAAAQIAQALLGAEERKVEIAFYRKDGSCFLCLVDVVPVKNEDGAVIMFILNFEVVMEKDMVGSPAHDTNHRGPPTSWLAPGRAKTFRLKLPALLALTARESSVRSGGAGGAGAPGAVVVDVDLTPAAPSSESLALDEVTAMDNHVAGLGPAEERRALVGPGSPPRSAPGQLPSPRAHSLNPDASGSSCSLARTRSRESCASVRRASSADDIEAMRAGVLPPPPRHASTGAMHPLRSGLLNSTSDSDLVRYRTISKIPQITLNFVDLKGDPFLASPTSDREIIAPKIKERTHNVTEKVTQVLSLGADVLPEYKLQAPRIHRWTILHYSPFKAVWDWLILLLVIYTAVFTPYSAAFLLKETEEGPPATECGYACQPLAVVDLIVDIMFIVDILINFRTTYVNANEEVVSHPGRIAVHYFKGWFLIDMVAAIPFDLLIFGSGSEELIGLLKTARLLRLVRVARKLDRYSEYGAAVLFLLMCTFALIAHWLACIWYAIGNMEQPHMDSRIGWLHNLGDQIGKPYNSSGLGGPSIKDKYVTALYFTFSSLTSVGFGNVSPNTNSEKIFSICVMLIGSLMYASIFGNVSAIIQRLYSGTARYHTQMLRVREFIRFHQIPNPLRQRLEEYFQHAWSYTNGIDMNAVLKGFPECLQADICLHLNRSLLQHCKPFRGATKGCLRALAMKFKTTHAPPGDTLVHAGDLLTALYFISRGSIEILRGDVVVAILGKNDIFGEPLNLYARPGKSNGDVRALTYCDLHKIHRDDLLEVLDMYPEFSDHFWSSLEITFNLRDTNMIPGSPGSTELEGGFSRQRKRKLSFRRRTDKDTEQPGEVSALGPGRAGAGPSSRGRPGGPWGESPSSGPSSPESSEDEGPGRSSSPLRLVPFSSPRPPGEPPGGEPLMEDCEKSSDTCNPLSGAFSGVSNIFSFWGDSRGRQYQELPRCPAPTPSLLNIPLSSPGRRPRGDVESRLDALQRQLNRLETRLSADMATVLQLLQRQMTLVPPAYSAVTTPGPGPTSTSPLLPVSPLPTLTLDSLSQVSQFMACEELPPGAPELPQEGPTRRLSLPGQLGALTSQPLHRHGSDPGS
Cytochrome P450 2C19, sequence (P33261 whole entry): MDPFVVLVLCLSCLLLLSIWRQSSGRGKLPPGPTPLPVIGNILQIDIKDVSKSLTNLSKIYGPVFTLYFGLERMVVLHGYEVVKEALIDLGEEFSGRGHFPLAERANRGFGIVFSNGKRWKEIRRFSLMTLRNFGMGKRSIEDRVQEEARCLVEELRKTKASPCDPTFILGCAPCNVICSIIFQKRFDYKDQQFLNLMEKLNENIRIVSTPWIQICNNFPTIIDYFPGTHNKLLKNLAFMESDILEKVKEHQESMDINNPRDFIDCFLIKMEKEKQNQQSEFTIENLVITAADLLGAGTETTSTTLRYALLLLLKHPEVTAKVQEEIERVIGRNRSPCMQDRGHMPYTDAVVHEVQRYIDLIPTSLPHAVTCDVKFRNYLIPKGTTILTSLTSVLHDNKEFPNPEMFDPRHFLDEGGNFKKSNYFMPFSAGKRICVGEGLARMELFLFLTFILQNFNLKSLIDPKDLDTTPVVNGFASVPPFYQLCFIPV
Prostaglandin G/H synthase 1, sequence (P23219 whole entry): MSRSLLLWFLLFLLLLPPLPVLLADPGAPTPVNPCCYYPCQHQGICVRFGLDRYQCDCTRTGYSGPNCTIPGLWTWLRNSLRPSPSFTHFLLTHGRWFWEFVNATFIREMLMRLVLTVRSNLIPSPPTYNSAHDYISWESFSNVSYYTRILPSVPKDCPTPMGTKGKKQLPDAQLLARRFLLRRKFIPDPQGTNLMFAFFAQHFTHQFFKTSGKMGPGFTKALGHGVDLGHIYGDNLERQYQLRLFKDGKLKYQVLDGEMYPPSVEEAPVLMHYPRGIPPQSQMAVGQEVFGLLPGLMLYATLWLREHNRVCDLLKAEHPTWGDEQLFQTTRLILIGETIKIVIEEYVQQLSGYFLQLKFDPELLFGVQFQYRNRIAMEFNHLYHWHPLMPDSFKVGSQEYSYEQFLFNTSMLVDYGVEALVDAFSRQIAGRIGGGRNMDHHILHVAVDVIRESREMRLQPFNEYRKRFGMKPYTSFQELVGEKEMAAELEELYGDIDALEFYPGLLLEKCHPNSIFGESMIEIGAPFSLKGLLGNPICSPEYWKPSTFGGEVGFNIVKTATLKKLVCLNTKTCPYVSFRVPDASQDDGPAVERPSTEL
Cytochrome P450 2C9, sequence (P11712 whole entry): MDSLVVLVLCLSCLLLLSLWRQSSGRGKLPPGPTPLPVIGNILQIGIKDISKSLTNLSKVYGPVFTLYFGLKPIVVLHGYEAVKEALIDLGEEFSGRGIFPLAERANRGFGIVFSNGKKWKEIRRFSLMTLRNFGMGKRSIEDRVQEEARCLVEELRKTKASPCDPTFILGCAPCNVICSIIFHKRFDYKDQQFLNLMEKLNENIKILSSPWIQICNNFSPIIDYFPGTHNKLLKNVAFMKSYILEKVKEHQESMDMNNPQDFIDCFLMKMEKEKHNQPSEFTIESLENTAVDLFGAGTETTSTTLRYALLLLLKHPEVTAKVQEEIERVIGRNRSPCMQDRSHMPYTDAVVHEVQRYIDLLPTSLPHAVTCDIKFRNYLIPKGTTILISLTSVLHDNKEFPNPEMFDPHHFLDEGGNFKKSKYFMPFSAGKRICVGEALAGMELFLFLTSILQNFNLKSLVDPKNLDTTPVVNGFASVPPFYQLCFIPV
Sodium-dependent serotonin transporter, sequence (P31652 whole entry): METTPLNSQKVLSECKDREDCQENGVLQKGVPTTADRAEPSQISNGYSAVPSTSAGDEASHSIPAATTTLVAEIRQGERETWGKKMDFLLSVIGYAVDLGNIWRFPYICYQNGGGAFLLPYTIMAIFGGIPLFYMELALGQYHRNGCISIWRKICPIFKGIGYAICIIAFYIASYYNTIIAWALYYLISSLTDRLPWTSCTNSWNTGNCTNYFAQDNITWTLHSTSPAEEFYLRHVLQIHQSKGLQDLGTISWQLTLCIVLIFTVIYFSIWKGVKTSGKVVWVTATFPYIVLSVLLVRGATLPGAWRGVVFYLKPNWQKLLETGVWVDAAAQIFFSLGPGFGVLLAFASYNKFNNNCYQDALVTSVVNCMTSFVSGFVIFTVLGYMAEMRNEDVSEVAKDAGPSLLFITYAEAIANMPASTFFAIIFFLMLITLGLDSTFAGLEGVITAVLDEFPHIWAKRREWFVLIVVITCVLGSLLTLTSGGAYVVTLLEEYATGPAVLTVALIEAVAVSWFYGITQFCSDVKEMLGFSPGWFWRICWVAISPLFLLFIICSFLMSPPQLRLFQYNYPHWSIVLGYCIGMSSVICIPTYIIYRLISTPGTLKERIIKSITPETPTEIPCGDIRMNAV

hepatocyte CLint [1] | hepatocyte CLint [2] | Activity [4] | Activity [5] | IC50 [6] | logD (physchem) | fraction unbound (Homo sapiens) | Structure (SMILES) | Activity [3] | also measured
3 µL/min/1e6 cells | 10.7 µL/min/1e6 cells | inactive | > 6 µM | 21 nM |  |  | Cc1ccc2c(c1)c(-c1ccnc3ccccc13)c(C)n2CC(=O)O | > 6 µM | 
1.4 µL/min/1e6 cells | 6.5 µL/min/1e6 cells | inactive | > 6 µM | 180 nM | 1.7 |  | COc1ccc2c(c1)c(CC(=O)O)c(C)n2-c1ccnc2cc(Cl)ccc12 | > 6 µM | Vd [7]: 2.3 L/kg; clearance [8]: 11 mL/min/kg; half-life [9]: 2.2 h; bioavailability [10]: 62%; IC50 (Cytochrome P450 2C19): 1600 nM; Activity ([11]; filed as antagonist): Antagonist
 | 5 µL/min/1e6 cells | inactive | > 6 µM | 50 nM |  | 0.003 | COc1ccc2c(c1)c(-c1ccnc3cc(Cl)ccc13)c(C)n2CC(=O)O | > 6 µM | 
 |  | inactive | > 6 µM | 23 nM | 0.3 | 0.064 | Cc1ccc2c(c1)c(-c1ccnc3c(S(C)(=O)=O)cccc13)c(C)n2CC(=O)O | > 6 µM | bioavailability [12]: 5%
 |  | inactive | > 6 µM | 6 nM | 1.3 | 0.004 | Cc1ccc2c(c1)c(-c1ccnc3c(C(F)(F)F)cccc13)c(C)n2CC(=O)O | > 6 µM | 
 | 7 µL/min/1e6 cells | inactive | > 6 µM | 11 nM | 0.5 |  | COc1cccc2c(-c3c(C)n(CC(=O)O)c4ccc(C)cc34)ccnc12 | > 6 µM | bioavailability [12]: 13%
 | < 3 µL/min/1e6 cells | inactive | > 6 µM | 18 nM |  |  | Cc1ccc2c(c1)c(-c1ccnc3c(C#N)cccc13)c(C)n2CC(=O)O | > 6 µM | 
1.9 µL/min/1e6 cells | 5.5 µL/min/1e6 cells | inactive | > 6 µM | 2.6 nM |  |  | Cc1ccc2c(c1)c(-c1ccnc3c(C)cccc13)c(C)n2CC(=O)O | > 6 µM | Vss (Rattus norvegicus [13]): 1.4 L/kg; T1/2 (Rattus norvegicus [14]): 1.7 h; bioavailability [10]: 76%; fraction unbound [15]: 0.02; clearance [16]: 1 mL/min/kg; bioavailability [12]: 100%; half-life [17]: 5.3 h; Vd [18]: 0.2 L/kg; IC50 (Cytochrome P450 2C19): 2500 nM; IC50 (Cytochrome P450 2C9): 5000 nM; IC50 [19]: 150 nM; IC50 [20]: 2000 nM; IC50 [21]: 3000 nM; IC50 [22]: 3000 nM
 | 16 µL/min/1e6 cells | inactive | > 6 µM | 68 nM | 1.8 |  | Cc1ccc2c(c1)c(-c1ccnc3ccc(C(F)(F)F)cc13)c(C)n2CC(=O)O | > 6 µM | 
 | 5 µL/min/1e6 cells | inactive | > 6 µM | 18 nM | 2.9 | 0.004 | Cc1ccc2c(c1)c(-c1cc(C)nc3ccccc13)c(C)n2CC(=O)O | > 6 µM | 
3.8 µL/min/1e6 cells | 6 µL/min/1e6 cells | inactive | > 6 µM | 8 nM | 1.6 | 0.002 | Cc1ccc2c(c1)c(-c1ccnc3cc(Cl)ccc13)c(C)n2CC(=O)O | > 6 µM | Vd [7]: 1.4 L/kg; clearance [8]: 6 mL/min/kg; half-life [9]: 6.7 h; fraction unbound [15]: 0.02; IC50 [21]: 400 nM
 |  | inactive | > 6 µM | 5200 nM |  |  | Cc1c(CC(=O)O)c2ccccc2n1-c1ccncn1 | > 6 µM | Activity ([11]; filed as partial agonist): Partial agonist
1.6 µL/min/1e6 cells | < 1 µL/min/1e6 cells | inactive | > 6 µM | 7.1 nM | 0.5 | 0.009 | Cc1ccc2c(c1)c(-c1ccnc3c(F)cccc13)c(C)n2CC(=O)O | > 6 µM | 
 |  | inactive | > 6 µM | 5.4 nM | 1.8 | 0.004 | Cc1ccc2c(c1)c(-c1ccnc3cc(C(F)(F)F)ccc13)c(C)n2CC(=O)O | > 6 µM | 
2 µL/min/1e6 cells | < 3 µL/min/1e6 cells | inactive | > 6 µM | 2.3 nM | 1.3 | 0.006 | Cc1ccc2c(c1)c(-c1ccnc3c(Cl)cccc13)c(C)n2CC(=O)O | > 6 µM | half-life [17]: 2.4 h
 |  | inactive | > 6 µM | 125 nM |  |  | Cc1ccc2c(-c3ccnc4cc(Cl)ccc34)c(C)n(CC(=O)O)c2c1 | > 6 µM | 
